Laboratory results reported in patent US8226943B2, “Antibodies to notch receptors” (OncoMed Pharmaceuticals, Inc., priority 2008, dated 2012).

Assays:
[1] = test system: PN8 pancreatic tumor cells; test: PN8 pancreatic tumor xenograft growth; format: in vivo, NOD/SCID mice; details: for PN8 Tumor vol relative to the control group: combination with gemcitabine, control is gemcitabine alone, antibody 15 mg/kg once per week
Description: (§1) The 59R1 IgG2 antibody was also tested in vivo in the breast tumor xenograft lines OMP-B34, OMP-B39, OMP-B44, PE13, and UM-T1, the pancreas tumor xenograft line OMP-PN8, and the colon tumor xenograft line OMP-C8. These tumor xenograft lines were established by adhering to procedures described in Al-Hajj et al., 2003, Proc. Natl. Acad. Sci. USA, 100:3983-3988. Female NOD/SCID immuno-compromised mice 7-10 weeks old were used for the establishment of the breast tumor xenografts and male NOD/SCID mice were used for the OMP-Pn8 and OMP-C8 tumor-models (Harlan, Indianapolis, Ind.). The 59R1 IgG2 antibody was also tested in vivo in a Colo-205 colon tumor xenograft model. Female immunodeficient bg/nu XID mice on a Swiss CD-1 background were used for the Colo-205 xenograft tumor model. In case of the breast cancer models, slow-releasing estrogen pellets (0.36 mg) had to be implanted. Mice were subcutaneously injected on the right flank with 50,000 (OMP-B34, OMP-B39, OMP-B44, PE13, and UM-T1) or 1×10^7 (Colo-205) viable cells, respectively, in a mixture of PBS (without magnesium or calcium) and Matrigel at a 1:1 ratio. The injected total volume per mouse was 200 μl with 50% being Matrigel. Once the tumor had reached a size between 65-200 mm^3, the mice were randomized. Antibodies were administered weekly and tumors measured twice weekly. LZ1 (a human antibody that recognizes lyzozyme) or 1B711 (a murine IgG1 antibody that recognizes the hapten trinitrophenol) was used as a control antibody for treatment of each tumor type. Tumor volume was calculated as described Al-Hajj et al. (2003). Data are expressed as the mean and the mean±S.E.M. Group means were compared using Student's two-tailed, unpaired t-test. […] All statistical analysis was performed using Microsoft EXCEL and Graph Pad PRISM.
In one embodiment, NOD/SCID mice were injected with PN8 pancreatic tumor cells. The tumors were allowed to grow for approximately 33 days until they had reached an average tumor volume of 150 mm^3. The mice were treated with gemcitabine at 20 mg/kg once per week for four weeks in combination with control antibody, anti-Notch2/3 antibody 59R1, or anti-Notch2/3 antibody 59R5.
(§2) Tumor volumes and p values for each experiment are shown relative to the control group. The PE13, C28 and Colo205 studies were carried out as described in Example 14. PN8 studies were carried out as described above. For the PN8 experiment, the control is gemcitabine alone and values for 59R1 and 59R5 are the combinations with gemcitabine. Antibodies were dosed once per week at 15 mg/kg for all experiments.

[2] = test system: Colo-205 colon tumor cells; test: Colo-205 colon tumor xenograft growth; format: in vivo, mice; details: for Colo205 Tumor vol relative to the control group: 15 mg/kg once per week; for growth of Colo205 colon tumors: 15 mg/kg once per week after tumors established
Description: In one experiment, the 1×10^7 viable Colo-205 colon tumor cells were injected into 6-8 week-old immunodeficient bg/nu XID female mice on a Swiss CD-1 background. Tumors were allowed to grow to a size of between 65 to 200 mm^3 after which mice were randomized (n=10 per experimental group), and antibodies administration begun. Animals were treated with 15 mg/kg of either control 1B7.11 antibodies or anti-Notch2/3 59R1 antibodies once weekly. Tumor size was measured twice weekly, and tumor volume was calculated as described (see Michieli et al., 2004, Cancer Cell, 6:61-73).
as §1
In another embodiment, NOD/SCID mice were injected with Colo205 colon tumor cells. The mice were treated with anti-Notch2/3 antibody 59R1, anti-Notch2/3 antibody 59R5 or control antibody. Antibodies were dosed at 15 mg/kg once per week after tumors had been established.
as §2

[3] = target: T1, human Notch1 with residues 382-386 mutated to the corresponding human Notch2 residues (Homo sapiens, UniProt P46531, E383K/N382H/N386L/S385A); test: FACS binding to mutant human Notch1 carrying Notch2 residues; details: HEK 293 transiently transfected
T1 construct: several point mutants were created within full-length Notch1; expressed in transfected cells; host or cells: HEK 293, transient, co-transfected with GFP
Description: A comparison analysis of the EGF 10 regions of human Notch1, Notch2, and Notch4 and the EGF 9 region of human Notch3 (the equivalent of EGF 10 in the other Notch receptors) was performed to determine likely binding sites for 59R1 (FIG. 14A). As a result of the analysis, several point mutants were created within full-length Notch2, converting residues within EGF 10 to the corresponding amino acids in human Notch 1. Also, conversely, point mutations were made in hNotch1 EGF 10 converting residues to the corresponding hN2 residues. Mutants in full-length Notch sequences were generated by QuikChange® mutagenesis (Stratagene) and verified by sequencing. Binding to the mutants was determined by FACS analysis (FIGS. 14B and 14C). 59R1 was detected by PE-conjugated goat anti-human Fc gamma specific antibody (Jackson Immunochemicals, #109-116-170). […] The corresponding residues in hNotch3 are histidine 361, alanine 364, and isoleucine 365.
The binding epitope of 59R5 was determined. As was described in Example 3 for analysis of antibody 59R1, several point mutants were created within full-length Notch1, converting residues within EGF10 to the corresponding amino acids in human Notch 2. […] 59R1 and 59R5 were detected by PE-conjugated goat anti-human Fc gamma specific antibody (Jackson Immunochemicals, #109-116-170). […]

[4] = established tumors, 15 mg/kg once a week

T1 sequence (P46531 19-2555 N382H/E383K/S385A/N386L): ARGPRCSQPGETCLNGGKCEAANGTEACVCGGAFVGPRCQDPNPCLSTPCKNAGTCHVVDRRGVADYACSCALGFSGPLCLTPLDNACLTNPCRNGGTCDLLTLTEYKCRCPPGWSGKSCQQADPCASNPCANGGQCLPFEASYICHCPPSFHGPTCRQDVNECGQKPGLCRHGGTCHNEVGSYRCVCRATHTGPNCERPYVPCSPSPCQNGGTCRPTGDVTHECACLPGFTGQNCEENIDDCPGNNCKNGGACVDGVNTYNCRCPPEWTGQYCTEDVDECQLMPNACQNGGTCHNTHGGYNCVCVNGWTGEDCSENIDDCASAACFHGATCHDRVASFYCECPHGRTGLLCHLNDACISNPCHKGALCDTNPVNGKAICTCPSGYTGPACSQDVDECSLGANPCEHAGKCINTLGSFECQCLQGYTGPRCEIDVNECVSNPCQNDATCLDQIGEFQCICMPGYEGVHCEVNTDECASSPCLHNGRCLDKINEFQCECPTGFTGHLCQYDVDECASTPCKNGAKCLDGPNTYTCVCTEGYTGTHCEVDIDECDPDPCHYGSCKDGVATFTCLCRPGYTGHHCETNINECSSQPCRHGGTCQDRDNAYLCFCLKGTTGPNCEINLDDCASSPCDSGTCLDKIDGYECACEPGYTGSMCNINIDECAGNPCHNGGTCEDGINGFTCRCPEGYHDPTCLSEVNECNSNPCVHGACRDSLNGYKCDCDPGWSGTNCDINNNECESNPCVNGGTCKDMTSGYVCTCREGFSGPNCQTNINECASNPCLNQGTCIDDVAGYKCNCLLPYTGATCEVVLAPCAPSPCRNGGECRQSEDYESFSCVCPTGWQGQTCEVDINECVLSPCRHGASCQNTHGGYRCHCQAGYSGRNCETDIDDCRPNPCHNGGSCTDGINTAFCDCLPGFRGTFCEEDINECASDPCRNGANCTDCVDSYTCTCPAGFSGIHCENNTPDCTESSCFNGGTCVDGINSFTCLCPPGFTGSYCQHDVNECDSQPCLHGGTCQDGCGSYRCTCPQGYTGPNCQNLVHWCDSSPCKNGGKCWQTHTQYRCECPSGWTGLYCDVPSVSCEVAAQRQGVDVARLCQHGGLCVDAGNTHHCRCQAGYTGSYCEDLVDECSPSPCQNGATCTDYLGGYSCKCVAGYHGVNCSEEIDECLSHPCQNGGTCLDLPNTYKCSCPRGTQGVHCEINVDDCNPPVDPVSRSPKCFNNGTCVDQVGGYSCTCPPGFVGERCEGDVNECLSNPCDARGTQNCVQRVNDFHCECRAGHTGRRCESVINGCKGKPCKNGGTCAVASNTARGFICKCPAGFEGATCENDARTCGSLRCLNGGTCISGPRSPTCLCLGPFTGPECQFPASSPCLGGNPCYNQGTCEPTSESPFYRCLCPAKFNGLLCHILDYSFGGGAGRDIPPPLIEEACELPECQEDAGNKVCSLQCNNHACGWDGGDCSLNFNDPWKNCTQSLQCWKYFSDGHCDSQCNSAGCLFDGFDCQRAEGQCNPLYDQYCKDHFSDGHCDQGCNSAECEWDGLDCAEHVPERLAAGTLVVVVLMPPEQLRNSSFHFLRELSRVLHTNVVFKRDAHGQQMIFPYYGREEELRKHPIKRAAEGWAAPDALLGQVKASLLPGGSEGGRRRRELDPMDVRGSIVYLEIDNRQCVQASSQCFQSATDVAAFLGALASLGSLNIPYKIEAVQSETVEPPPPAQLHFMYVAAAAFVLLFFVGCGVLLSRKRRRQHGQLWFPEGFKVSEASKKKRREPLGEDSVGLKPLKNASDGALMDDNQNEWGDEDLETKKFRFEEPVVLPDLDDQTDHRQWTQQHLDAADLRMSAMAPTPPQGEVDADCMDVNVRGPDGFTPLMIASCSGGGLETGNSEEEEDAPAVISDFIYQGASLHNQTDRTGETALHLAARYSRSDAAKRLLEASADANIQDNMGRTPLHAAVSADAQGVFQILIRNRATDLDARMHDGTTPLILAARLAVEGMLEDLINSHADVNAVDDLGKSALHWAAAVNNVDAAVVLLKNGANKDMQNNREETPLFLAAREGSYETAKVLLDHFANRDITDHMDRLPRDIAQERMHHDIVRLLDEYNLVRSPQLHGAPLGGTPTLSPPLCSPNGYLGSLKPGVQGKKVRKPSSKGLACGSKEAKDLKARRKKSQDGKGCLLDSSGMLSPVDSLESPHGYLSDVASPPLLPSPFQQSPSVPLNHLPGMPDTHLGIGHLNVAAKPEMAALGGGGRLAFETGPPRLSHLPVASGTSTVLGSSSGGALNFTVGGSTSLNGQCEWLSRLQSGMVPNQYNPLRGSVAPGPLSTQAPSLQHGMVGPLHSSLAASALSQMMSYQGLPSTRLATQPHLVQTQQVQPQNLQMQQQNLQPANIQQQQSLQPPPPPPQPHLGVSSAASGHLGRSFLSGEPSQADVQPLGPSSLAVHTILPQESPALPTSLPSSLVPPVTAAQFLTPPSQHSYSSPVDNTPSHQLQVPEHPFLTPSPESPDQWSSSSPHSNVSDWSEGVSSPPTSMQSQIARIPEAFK

Substance | PN8 Tumor vol relative to the control group [1] | PN8 pancreatic tumor growth relative to control antibody [1, 4] | Colo205 Tumor vol relative to the control group [2] | growth of Colo205 colon tumors [2] | Colo205 tumor growth, combination of 59R1 plus bevacizumab (AVASTIN) versus either alone [2, 4] | Colo205 tumor growth, monotherapy relative to control antibody (LZ1) [2, 4] | Colo-205 tumor growth compared to control ([2]; established tumors, 15 mg/kg once weekly, control 1B7.11) | FACS binding to mutant hNotch1 with EGF 10 residues mutated to hNotch2 residues 385-389 [3] | PN8 tumor growth, antibody in combination with gemcitabine ([1]; gemcitabine 20 mg/kg once per week for four weeks)
59R1: human IgG2 antibody binding Notch2 and Notch3; heavy and light chain SEQ ID NO:16 and 18; ATCC PTA-9547 | 0.27 | inhibit pancreatic tumor growth | 0.68 | inhibited | even greater inhibition of tumor growth | significantly inhibited growth | significantly reduced | does bind | –
59R5: human antibody that specifically binds human Notch 2 and human Notch 3; heavy and light chain SEQ ID NO:49 and 18; ATCC PTA-10170 | 0.11 | – | 0.61 | inhibited | – | – | – | able to bind | inhibited tumor growth at a similar level as antibody 59R1
